Legend:
CYP1A2 = test: CYP induction in cryopreserved human hepatocytes; settings: positive control, 50 µM, 48 h, n = 3 donors
CYP2B6 = test: CYP induction in cryopreserved human hepatocytes; settings: positive control, 1000 µM, 48 h, n = 3 donors
BCRP = molecular target: T1, BCRP (Homo sapiens, UniProt Q9UNQ0); test: Bidirectional transport across MDCKII and MDCKII-BCRP cell monolayers; assay type: in vitro ADME; design: expressed in transfected cells; host or cells: MDCKII; settings: positive control substrate 1 µM, mean ± SEM
T1 sequence (Q9UNQ0 1-655): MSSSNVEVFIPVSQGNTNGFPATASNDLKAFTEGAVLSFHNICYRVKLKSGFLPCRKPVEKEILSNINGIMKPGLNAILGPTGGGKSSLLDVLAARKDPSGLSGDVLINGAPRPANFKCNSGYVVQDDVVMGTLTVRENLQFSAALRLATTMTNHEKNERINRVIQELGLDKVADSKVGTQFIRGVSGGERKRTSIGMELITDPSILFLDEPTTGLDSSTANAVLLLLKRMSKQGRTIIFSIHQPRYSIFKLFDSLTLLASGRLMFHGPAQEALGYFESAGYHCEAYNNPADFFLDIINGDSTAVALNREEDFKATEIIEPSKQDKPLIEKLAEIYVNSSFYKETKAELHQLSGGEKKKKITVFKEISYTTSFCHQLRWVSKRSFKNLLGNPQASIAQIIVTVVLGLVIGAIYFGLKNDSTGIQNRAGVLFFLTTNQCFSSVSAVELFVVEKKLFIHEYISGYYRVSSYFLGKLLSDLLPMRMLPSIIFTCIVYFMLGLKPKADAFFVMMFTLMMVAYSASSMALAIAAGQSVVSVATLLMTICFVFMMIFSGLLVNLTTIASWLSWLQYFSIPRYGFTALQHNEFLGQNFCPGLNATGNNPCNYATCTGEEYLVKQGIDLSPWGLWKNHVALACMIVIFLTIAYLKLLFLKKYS

With `COc1ccc2[nH]c([S+]([O-])Cc3ncc(C)c(OC)c3C)nc2c1` (stereo not shown) [Omeprazole, reference compound] the “mRNA Mean Fold Change ± SD CYP1A2” value (CYP1A2) was 26.4 ± 8.6.

For `CCC1(c2ccccc2)C(=O)NC(=O)NC1=O` [Phenobarbitol, reference compound], the “mRNA Mean Fold Change ± SD CYP2B6” value (CYP2B6) was 18.5 ± 1.9.

For `COc1cc2nc(N3CCN(C(=O)c4ccco4)CC3)nc(N)c2cc1OC` [prazosin, reference compound], the efflux ratio (BCRP; dog, MDCK, untransfected control cells) was 1 ± 0.09 and the efflux ratio (BCRP; human, BCRP-transfected monolayers) was 14.9 ± 4.9.

Reference: paper PMC8402619 (Viruses, 2021)
